Columns and labels:
CCl4 intoxicated mice = assay: Hepato-protective action: SGPT of CCl4 intoxicated mice; format: in vivo, male Kunming strain mice; conditions: two oral doses of 250 mg/kg
Experimental: (§1) Male Kunming strain mice weighing 18-22 grams were used throughout the experiments. The compounds to be tested were suspended in 5% Tween 80 and given orally by gavage. The vehicle of 5% Tween 80 solution was administered to control mice via the same route. In in vitro experiments, the compounds were dissolved in dimethylformamide and added directly into the incubation mixture.
(§2) The parameters adopted for hepatotoxicity included serum transaminase (SGPT), liver triglycerides, and pathological examination of liver tissues. The liver lesions were scored mainly by the extent of inflammation and necrosis and graded from 0 to 4.
(§3) (a) Hepato-protective action

[1] = tested on: CCl4 hepatotoxicity in mice; assay: Protective action of Clausenamide against CCl4 hepatotoxicity in mice; format: in vivo, male Kunming strain mice; conditions: for Liver lipids (X ± SE): control 21.0 ± 4.2; for SGPT (X ± SE): nine mice per group, control 3016 ± 23
Experimental: as §1, §2, §3
The procedure of experiment of anti-CCl4 hepatotoxicity was the same as described above. The dosages of the active compound used were 125 and 250 mg/kg. […] Liver lipids were not decreased.

[2] = tested on: CCl4 hepatotoxicity in mice; assay: Therapeutic effect on CCl4 hepatotoxicity in mice; format: in vivo, male Kunming strain mice
Experimental: as §1, §2
In another experiment, mice were first injected […] of 0.15% CCl4 in vegetable oil every other day for 3 doses. Treatment of the mice with Clausenamide (250 mg/kg daily) started from the second to fifth day after the first injection of CCl4. The determination of SGPT and pathological examination of liver tissues were performed on day 7 of the experiment.

[3] = tested on: thioacetamide hepatotoxicity in mice; assay: Protective action against thioacetamide hepatotoxicity in mice; format: in vivo, male Kunming strain mice; conditions: thioacetamide 50 mg/kg
Experimental: as §1, §2, §3
In the experiment of thioacetamide hepatotoxicity, mice were treated according to the procedure of the first experiment except that thioacetamide (50 mg/kg) was used instead of CCl4.

[4] = tested on: acetaminophen hepatotoxicity in mice; assay: Protective action against acetaminophen hepatotoxicity in mice; format: in vivo, male Kunming strain mice; conditions: 250 mg/kg × 3
Experimental: as §1, §2
The experiment of anti-acetaminophen hepatotoxicity was performed in the following way. Mice were administered two doses (250 mg/kg) of Clausenamide on the first day followed by the same dose on the second day. A dose of 150 mg/kg of acetaminophen was injected ip 6 h after the last dose of the compound. SGPT was determined and liver tissues were examined 20 h after acetaminophen injection.

[5] = tested on: serum and liver transaminase (GPT); assay: Effect on serum and liver transaminase (GPT) levels of normal mice; format: in vivo, male Kunming strain mice
Experimental: as §1
Two groups of mice were administered the vehicle or 250 mg/kg of Clausenamide once daily for 7 consecutive days, respectively. The serum and liver GPT were determined 24 h after the last dose administration.

[6] = Induction of hepatic microsomal cytochrome P-450: liver weight and microsomal protein; format: in vivo, male Kunming strain mice; conditions: 250 mg/kg/day × 3; 6 per group; control 4.0 ± 0.2
Experimental: as §1
(§4) The liver microsomal cytochrome P-450 plays a key role in the detoxification of xenobiotics. Mice were administered 250 mg/kg of Clausenamide once daily for 3 days. The control mice received the vehicle. The mice were killed after fasting overnight. Liver microsomes were prepared and microsomal monooxygenases were determined.

[7] = tested on: hepatic microsomal cytochrome P-450; assay: Induction of hepatic microsomal cytochrome P-450; format: in vivo, male Kunming strain mice
Experimental: as §1, §4

[8] = tested on: NADPH-cytochrome c reductase; assay: Induction of hepatic microsomal enzymes: NADPH-cytochrome c reductase; format: in vivo, male Kunming strain mice
Experimental: as §1, §4

Cytochrome b5 = assay: Induction of hepatic microsomal enzymes: cytochrome b5; format: in vivo, male Kunming strain mice
Experimental: as §1, §4

Aminopyrine demethylase = assay: Induction of hepatic microsomal enzymes: aminopyrine demethylase; format: in vivo, male Kunming strain mice
Experimental: as §1, §4

[9] = tested on: benzo(a)pyrene hydroxylase (AHH); assay: Induction of hepatic microsomal enzymes: benzo(a)pyrene hydroxylase (AHH); format: in vivo, male Kunming strain mice
Experimental: as §1, §4

[10] = tested on: pentobarbital sleeping time; assay: Effect on barbiturates sleeping time in mice (pentobarbital); format: in vivo, male Kunming strain mice; conditions: 250 mg/kg; for Sleeping time (X ± SE): 10 per group, control 71 ± 7, P <0.01
Experimental: as §1
(§5) In another experiment, mice were given a dose of 250 mg/kg of Clausenamide. Sodium pentobarbital (50 mg/kg) was injected ip 1 and 24 h after administration of the compounds. The sleeping time was estimated by recording the interval of disappearance and recovery of righting reflex. […] This means that the prolongation of pentobarbital sleeping time by Clausenamide was due to the inhibition of liver drug metabolism enzyme.

barbital sleeping time = assay: Effect on barbiturates sleeping time in mice (barbital); format: in vivo, male Kunming strain mice
Experimental: as §1
as §5, with “Sodium pentobarbital (50 mg/kg) was injected ip 1 and 24 h after administration of the compounds.” left out

mice = assay: Acute toxicity test; format: in vivo; conditions: single oral dose of 3 grams/kg, 10 mice
Experimental: as §1

[11] = tested on: hypoxia tolerance (mouse); assay: Increase of hypoxia tolerance (mouse); format: in vivo, male mice; conditions: for surviving/total animals: 30 min before test, 3.5% oxygen, control 9/60
Experimental: Collectives of male mice (20 g body weight) are placed in a plastic box divided into two chambers (size of the box: 15×28×40 cm corresponding to a volume of 16.8 l per bos). 20 mice are placed in each chamber. The box is perfused with a gas mixture containing 3.5% oxygen and 96.5% nitrogen. The perfusion volume is 4 l/min. The test substance and vehicle are administered orally 30 min before the test.
About 7 min after onset of perfusion with the hypoxic mixture animals die. The experiment is stopped when in the left hand chamber (control collective) three animals only show signs of respiration. The box is opened and the number of animals of the treated group still alive is counted.
The difference between the survived animals in both groups is evaluated using the X^2 test according to Fisher and Yates (1963) (Thomann et al. 1975).

retrograde amnesia (rat) = assay: Retrograde amnesia (rat) under hypoxic conditions; format: in vivo, male rats; conditions: time to enter dark compartment 24 h after hypoxia
Experimental: The apparatus (39 cm long, 21 cm high, and 21 cm wide) consists of two compartments, one made of translucent plastic (29 cm long) and the other one painted black (10 cm long). It has a bottom of spaced metal grids which are connected to a stimulating device delivering 1.6 mA for 20 s.
Both compartments are connected via a door which can be closed.
Male rats (100-120 g body weight) will be placed individually in the large compartment and allowed to explore both compartments for 3 min.
Thereafter the animals are placed in the small (dark) compartment, the connecting door is closed and the foot shock is delivered. After that the animals are put in an air-tight cage which is perfused by a gas mixture containing 3.8% oxygen and 96.2 % nitrogen.
24 hours later the rats are placed again in the bright compartment. The observation time is 3 min.
One experiment is performed in three groups of 15 animals each:
Group A: control group, not exposed to hypoxia
Group B: control group, receiving hypoxia after first training
Group C: treated animals, receiving hypoxia after first training.
Evaluation: the times the animals need to enter the dark compartment are measured in seconds.
The time difference between the two control groups is considered to be 100% (A-B=100%).
The time difference between the control group B and the treated group C is calculated in percent (C-B=X%). X is considered to be a measure for the potency of the antiamnestic effect of the substance tested.

Solubility = format: physicochemical
[12] = 250 mg/kg once daily for 3 days

SMILES: CN1C(=O)[C@@H](O)[C@H](c2ccccc2)[C@@H]1[C@@H](O)c1ccccc1 (relative stereo) [Clausenamide]
- SGPT (X ± SE) (CCl4 intoxicated mice; CCl4 intoxicated mice, 8 h apart, 9 per group, control 1678 ± 261): 617 ± 323 unit %
- SGPT levels of CCl4-intoxicated mice, in words (CCl4 intoxicated mice): significantly decreased SGPT levels
- Liver lipids (X ± SE) ([1]; 125 mg/kg × 2, CCl4): 21.6 ± 4.4 mg/g liver
- SGPT (X ± SE) ([1]; 125 mg/kg × 2, CCl4, P < 0.05): 2365 ± 245 unit %
- Liver lipids (X ± SE) ([1]; 250 mg/kg × 2, CCl4): 13.4 ± 3.0 mg/g liver
- Liver lesions: Inflammation grade ([1]; 250 mg/kg × 2, CCl4, graded from 0 to 4, control 1.70): 0.38 grade
- Liver lesions: Necrosis grade ([1]; 250 mg/kg × 2, CCl4, graded from 0 to 4, control 2.33): 1.33 grade
- SGPT (X ± SE) ([1]; 250 mg/kg × 2, CCl4, p < 0.01): 1900 ± 257 unit %
- Liver injuries such as inflammation and necrosis, in words ([1]; 250 mg/kg, CCl4): less severe than those of the control
- Elevation of SGPT induced by CCl4, in words ([1]; 125 and 250 mg/kg): significantly depressed the elevation of SGPT
- Liver lipids, in words ([1]; CCl4): not decreased
- SGPT lowering, in words ([2]; 250 mg/kg daily, second to fifth day after first CCl4 injection): significant SGPT lowering action
- Liver lesions, in words ([2]; 250 mg/kg daily, second to fifth day after first CCl4 injection, day 7): no effect on liver lesions
- SGPT (X ± SE) ([2]; 250 mg/kg/day × 4, started after first CCl4 injection, 8 mice, control 2695 ± 110, P <0.01): 1718 ± 224 unit %
- Liver lipids (X ± SE) ([3]; 250 mg/kg × 2, control 61 ± 11.7): 39 ± 3.9 mg/g
- SGPT (X ± SE) ([3]; 250 mg/kg × 2, nine mice per group, control 1696 ± 231, P < 0.01): 718 ± 229 unit %
- SGPT levels, in words [3]: markedly lowered the SGPT levels
- Hepatic injuries, in words ([4]; acetaminophen 150 mg/kg ip): markedly decreased SGPT levels and hepatic injuries
- SGPT levels, in words ([4]; acetaminophen 150 mg/kg ip): markedly decreased SGPT levels
- Liver lipids ([4]; acetaminophen 150 mg/kg ip, control 79 ± 13): 82 ± 17 mg/g
- SGPT ([4]; acetaminophen 150 mg/kg ip, nine mice per group, control 2778 ± 270, P < 0.01): 697 ± 163 unit %
- Liver inflammation (grade) ([4]; acetaminophen, graded from 0 to 4, control 0.5): 0.1 grade
- Liver necrosis (grade) ([4]; acetaminophen, graded from 0 to 4, control 1.4): 0 grade
- SGPT level of normal mice, in words ([5]; 250 mg/kg once daily for 7 days): slightly higher than that of the control, but the difference was not significant
- SGPT (X ± SE) ([5]; normal mice, 250 mg/kg/day × 7, eight mice per group, control 217 ± 7.5, P > 0.05): 252 ± 22.1 unit %
- LGPT (X ± SE) ([5]; normal mice, 250 mg/kg/day × 7, eight mice per group, control 260 ± 11.6, P > 0.05): 292 ± 8.0 unit/100 mg
- Liver weight [6]: 5.4 ± 0.2 g %
- Hepatic cytochrome P-450, in words [7, 12]: increased significantly
- Cytochrome P-450 ([7]; 250 mg/kg/day × 3, 6 per group, control 0.87 ± 0.07): 1.14 ± 0.07 nmol/mg protein
- Action on hepatic microsomal cytochrome P-450 (concluded from sleeping time and enzyme data) ([7]; 250 mg/kg, biphasic): inhibition and followed by induction
- NADPH-cytochrome c reductase, in words [8, 12]: increased significantly
- NADPH-cytochrome c reductase ([8]; 250 mg/kg/day × 3, 6 per group, control 103 ± 2.5): 117 ± 2.5 nmol cytochrome c reduced/min/
- Cytochrome b5, in words (Cytochrome b5; [12]): increased significantly
- Cytochrome b5 (Cytochrome b5; 250 mg/kg/day × 3, 6 per group, control 0.15 ± 0.01): 0.19 ± 0.01 nmol/mg protein
- Aminopyrine demethylase, in words (Aminopyrine demethylase; [12]): increased significantly
- Aminopyrine demethylase (Aminopyrine demethylase; 250 mg/kg/day × 3, 6 per group, control 81 ± 6.3): 126 ± 5.2 nmol HCHO/min protein
- Benzo(a)pyrene hydroxylase activity, in words [9, 12]: increased significantly
- AHH ([9]; 250 mg/kg/day × 3, 6 per group, control 2.6 ± 0.4): 5.7 ± 0.76 nmol/min/mg protein
- Sleeping time (X ± SE) ([10]; 1 h before pentobarbital 50 mg/kg): 152 ± 17 min
- Pentobarbital sleeping time, in words ([10]; 1 h prior to pentobarbital): prolonged markedly
- Pentobarbital sleeping time, in words ([10]; 24 h before pentobarbital): shortened significantly
- Sleeping time (X ± SE) ([10]; 24 h before pentobarbital 50 mg/kg): 46 ± 6 min
- Sleeping time (X ± SE) (barbital sleeping time; 250 mg/kg, 1 h before barbital 200 mg/kg, 10 per group, control 197 ± 27, P >0.05): 172 ± 13 min
- Barbital sleeping time, in words (barbital sleeping time; prior administration of the compound): did not affect sleeping time
- Death in 7 days (mice): did not cause death
- effect ([11]; 10 mg/kg p.o.): 19.6%
- surviving/total animals ([11]; 10 mg/kg p.o.): 19/60
- effect ([11]; 30 mg/kg p.o.): 41.1%
- surviving/total animals ([11]; 30 mg/kg p.o.): 31/60
- effect ([11]; 100 mg/kg p.o.): 58.8%
- increase in the survival rate ([11]; 100 mg/kg p.o.): 59%
- surviving/total animals ([11]; 100 mg/kg p.o.): 40/60
- hypoxia tolerance, in words ([11]; 10 to 100 mg/kg p.o.): significantly increased
- X (antiamnestic effect, C-B as percent of A-B) (retrograde amnesia (rat); 3 mg/kg p.o.): 47%
- X (antiamnestic effect, C-B as percent of A-B) (retrograde amnesia (rat); 10 mg/kg p.o.): 65%
- X (antiamnestic effect, C-B as percent of A-B) (retrograde amnesia (rat); 30 mg/kg p.o.): 100%
- solubility in common organic solvents (Solubility; CHCl3, CH2Cl2, ether, ethyl acetate, etc.): only slightly soluble
- solubility in hot methanol, DMSO and DMF (Solubility; hot methanol, DMSO and DMF): soluble

Source: US4879390A, “Delta-butyrolactams, thereof, processes for the preparation thereof and their medical use” (priority 1984, dated 1989)
